Activity calls are given as the source filed them. The calls are words filed in the database; no cut-off is given here.
Key:
[1] = tested on: U2OS; settings: Homo sapiens, 10 uM
Description: Inhibition of RNA polymerase-1 in human U2OS cells assessed as effect on nucleolin protein expression at 10 uM after 3 hrs by Western blot analysis

[2] = tested on: U2OS; settings: Homo sapiens, 0.1 to 1 uM
Description: Inhibition of RNA polymerase-1 in human U2OS cells assessed as effect on nucleolin protein expression at 0.1 to 1 uM after 3 hrs by Western blot analysis

[3] = tested on: U2OS; experiment: Cytotoxicity against human U2OS cells assessed as loss of cell viability at 0.5 to 5 uM after 48 hrs by WST-1 assay; assay type: functional, cell-based
[4] = Inhibition of RNA polymerase-1 in human U2OS cells assessed as decrease in nucleolar localization of nucleolin after 3 hrs by epifluorescence microscopic analysis; assay type: cell-based
[5] = target: DNA-directed RNA polymerase I subunit RPA1 (Homo sapiens, UniProt O95602); settings: u2os
Description: Induction of RNA polymerase-1 RPA194 subunit degradation in human U2OS cells after 3 hrs by epifluorescence microscopic analysis

[6] = tested on: Liver microsome; experiment: Half life in human liver microsomes at 1 uM preincubated for 5 mins followed by beta-NADPH addition; assay type: ADME

Chain of DNA-directed RNA polymerase I subunit RPA1 (O95602 whole entry): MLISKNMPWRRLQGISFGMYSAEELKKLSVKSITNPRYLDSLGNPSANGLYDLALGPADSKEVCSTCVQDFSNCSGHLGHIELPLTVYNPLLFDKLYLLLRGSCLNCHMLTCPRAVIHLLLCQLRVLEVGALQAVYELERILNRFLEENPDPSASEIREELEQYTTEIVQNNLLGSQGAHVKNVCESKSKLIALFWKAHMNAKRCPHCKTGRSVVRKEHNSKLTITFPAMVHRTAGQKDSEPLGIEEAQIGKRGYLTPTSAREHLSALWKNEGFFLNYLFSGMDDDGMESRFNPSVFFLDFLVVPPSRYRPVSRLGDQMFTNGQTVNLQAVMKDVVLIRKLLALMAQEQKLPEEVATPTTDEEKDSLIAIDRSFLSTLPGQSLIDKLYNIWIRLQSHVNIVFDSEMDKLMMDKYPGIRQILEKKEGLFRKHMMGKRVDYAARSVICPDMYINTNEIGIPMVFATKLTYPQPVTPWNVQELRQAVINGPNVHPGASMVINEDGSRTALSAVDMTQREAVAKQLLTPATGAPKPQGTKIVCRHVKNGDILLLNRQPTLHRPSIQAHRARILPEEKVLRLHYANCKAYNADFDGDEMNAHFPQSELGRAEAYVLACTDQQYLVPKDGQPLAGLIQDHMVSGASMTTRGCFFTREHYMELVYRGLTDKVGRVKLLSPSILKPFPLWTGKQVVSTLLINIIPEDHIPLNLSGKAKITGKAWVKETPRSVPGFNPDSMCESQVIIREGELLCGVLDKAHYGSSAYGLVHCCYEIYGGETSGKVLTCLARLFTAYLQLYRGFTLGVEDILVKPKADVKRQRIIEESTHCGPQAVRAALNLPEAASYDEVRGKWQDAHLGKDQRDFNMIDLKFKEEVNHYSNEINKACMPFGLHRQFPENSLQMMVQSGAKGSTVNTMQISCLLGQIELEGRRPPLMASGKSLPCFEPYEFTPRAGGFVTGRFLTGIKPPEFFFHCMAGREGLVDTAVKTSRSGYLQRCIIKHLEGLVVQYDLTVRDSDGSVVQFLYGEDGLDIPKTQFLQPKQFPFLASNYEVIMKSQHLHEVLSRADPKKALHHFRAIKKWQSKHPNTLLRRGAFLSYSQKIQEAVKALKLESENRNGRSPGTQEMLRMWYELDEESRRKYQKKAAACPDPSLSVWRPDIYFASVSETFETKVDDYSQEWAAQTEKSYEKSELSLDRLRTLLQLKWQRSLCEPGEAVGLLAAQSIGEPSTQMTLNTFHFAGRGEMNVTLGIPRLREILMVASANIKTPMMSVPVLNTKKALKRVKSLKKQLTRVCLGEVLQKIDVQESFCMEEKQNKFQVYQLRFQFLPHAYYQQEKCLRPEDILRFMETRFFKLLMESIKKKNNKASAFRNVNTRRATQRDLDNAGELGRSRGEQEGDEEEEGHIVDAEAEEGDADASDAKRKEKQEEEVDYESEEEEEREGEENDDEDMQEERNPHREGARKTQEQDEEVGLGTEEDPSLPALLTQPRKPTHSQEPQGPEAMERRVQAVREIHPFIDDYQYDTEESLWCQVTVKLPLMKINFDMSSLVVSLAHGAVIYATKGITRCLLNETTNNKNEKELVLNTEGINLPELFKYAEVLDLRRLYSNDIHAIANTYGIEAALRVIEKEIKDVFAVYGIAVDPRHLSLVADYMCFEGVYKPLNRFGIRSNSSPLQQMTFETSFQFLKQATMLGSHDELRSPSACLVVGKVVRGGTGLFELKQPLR

Compound	inhibition [1]	inhibition [2]	Activity [3]	IC50 [4] [µM]	IC50 [5] [µM]	t1/2 [6] [min]
CN(C)CCCCNC(=O)c1cccn2c(=O)c3cc4ccccc4cc3nc12	Active	inactive	inactive	–	–	–
CN(C)CCOC(=O)c1cccn2c(=O)c3cc4ccccc4cc3nc12	–	–	–	12.3	50.9	–
COCCN(C)CCNC(=O)c1cccn2c(=O)c3cc4ccccc4cc3nc12	–	–	–	–	–	14
CN1CCN(CCNC(=O)c2cccn3c(=O)c4cc5ccccc5cc4nc23)CC1	–	–	–	–	–	43
CC(CNC(=O)c1cccn2c(=O)c3cc4ccccc4cc3nc12)N(C)C (stereo not given)	–	–	Active	–	–	43
CC(CN(C)C)NC(=O)c1cccn2c(=O)c3cc4ccccc4cc3nc12 (stereo not given)	Active	inactive	–	–	–	54
CN(C)CCNC(=O)c1cccn2c(=O)c3cc4ccccc4cc3nc12	Active	inactive	Active	0.07	–	57
CCN(CC)CCNC(=O)c1cccn2c(=O)c3ccccc3nc12	–	–	–	3.28	1.35	–
CCN(CC)CCNC(=O)c1cccn2c(=O)c3cc4ccccc4cc3nc12	–	–	–	–	–	21
O=C(NCCN1CCCCC1)c1cccn2c(=O)c3cc4ccccc4cc3nc12	Active	inactive	Active	–	–	25
CCN(CC)C1CCN(C(=O)c2cccn3c(=O)c4cc5ccccc5cc4nc23)C1 (stereo not given)	–	–	–	10.6	31.8	–
CN(C)CCNC(=O)c1cccn2c(=O)c3ccccc3nc12	Active	inactive	inactive	3.17	2.17	–
O=C(NCCN1CCOCC1)c1cccn2c(=O)c3cc4ccccc4cc3nc12	Active	inactive	inactive	–	–	–
O=C(NCCN1CCCC1)c1cccn2c(=O)c3cc4ccccc4cc3nc12	–	–	Active	–	–	33
CN(C)CCN(C)C(=O)c1cccn2c(=O)c3cc4ccccc4cc3nc12	Active	inactive	inactive	> 100	–	–

— ChEMBL document CHEMBL3286342, “Design, synthesis, and structure-activity relationships of pyridoquinazolinecarboxamides as RNA polymerase I inhibitors” (J Med Chem, 2014)
